Laboratory results as given in ChEMBL document CHEMBL1201862, “PubChem BioAssay data set” (2004).
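Values below derive from 48-hour exposures of cells grown in 96-well plates, with endpoints linearly interpolated between the two concentrations bracketing the appropriate inhibition level. GI50 = concentration required for 50% inhibition of growth.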 The source made the active and inactive calls. Cut-off read from the data, not from the text of the source: active = GI50 up to about 1.1 µM and inactive = higher. Peptide text beside a SMILES is read from it. * marks the point of attachment. Cbz = O=C(OCc1ccccc1)*; NHNH2 = NN*

Legend:
Assay in all cases: growth of human tumour cells (NCI), 48 h
A498 = test system: A498
BT-549 = test system: BT-549
CAKI-1 = test system: CAKI-1
DU-145 = test system: DU-145
HOP-62 = test system: HOP-62
Hs-578T = test system: Hs-578T
IGROV-1 = test system: IGROV-1
KM12 = test system: KM12
Malme-3M = test system: Malme-3M
NCI-H460 = test system: NCI-H460
OVCAR-3 = test system: OVCAR-3
OVCAR-5 = test system: OVCAR-5
OVCAR-8 = test system: OVCAR-8
SF-268 = test system: SF-268
SK-MEL-28 = test system: SK-MEL-28
SK-MEL-5 = test system: SK-MEL-5
T47D = test system: T47D
UACC-257 = test system: UACC-257
UACC-62 = test system: UACC-62
MDA-N = test system: MDA-N

Measured: GI50

Nc1cc(C2CCCc3c2[nH]c2ccccc32)ccc1O (configuration not stated)
inactive: A498 > 100 µM | BT-549 35.2 µM | CAKI-1 25.2 µM | DU-145 26 µM | HOP-62 74.6 µM | Hs-578T 69.8 µM | IGROV-1 38.2 µM | KM12 20.1 µM | Malme-3M 33 µM | NCI-H460 > 100 µM | OVCAR-3 22.3 µM | OVCAR-5 24.1 µM | OVCAR-8 24.3 µM | SF-268 45.9 µM | SK-MEL-28 > 100 µM | SK-MEL-5 6 µM | T47D 14.3 µM | UACC-257 42.4 µM | UACC-62 10.8 µM

O=C1OCC2OC(=O)c3cc(O)c(O)c(O)c3-c3c(O)c(O)c(O)c4c3C(=O)OC(C2OC(=O)c2cc(O)c(O)c(O)c2-c2c1cc(O)c(O)c2O)C1OC(=O)C2C4=C(O)C(=O)C23Oc2cc(O)c4c(c2[C@H]13)O[C@H](c1ccc(O)c(O)c1)[C@@H](O)C4 (some centres not stated)
inactive: A498 > 100 µM | BT-549 19.3 µM | CAKI-1 16.2 µM | DU-145 30.9 µM | HOP-62 41.7 µM | Hs-578T 28.1 µM | IGROV-1 26.4 µM | KM12 24.8 µM | Malme-3M 23.1 µM | NCI-H460 20.5 µM | OVCAR-3 30.1 µM | OVCAR-5 14.6 µM | OVCAR-8 22.2 µM | SF-268 19 µM | SK-MEL-28 66.7 µM | SK-MEL-5 16 µM | T47D 20.7 µM | UACC-257 29 µM | UACC-62 20.4 µM

COc1ccc(-c2cc(-c3ccco3)c(C#N)c(=S)n2C2OC(COC(C)=O)C(OC(C)=O)C(OC(C)=O)C2OC(C)=O)cc1 (configuration not stated)
inactive: BT-549 2.82 µM | CAKI-1 3.98 µM | DU-145 7.94 µM | HOP-62 2.61 µM | Hs-578T 3.15 µM | IGROV-1 13.3 µM | KM12 11.9 µM | MDA-N 5.5 µM | Malme-3M 5.18 µM | NCI-H460 5.11 µM | OVCAR-3 7.13 µM | OVCAR-5 15.6 µM | OVCAR-8 3.78 µM | SF-268 8.45 µM | SK-MEL-28 3.3 µM | SK-MEL-5 10.6 µM | T47D 5.24 µM | UACC-62 3.72 µM

Cc1ccc(S(=O)(=O)NC(=O)NCCC(=O)O)cc1
inactive: BT-549 25.8 µM | DU-145 > 100 µM | HOP-62 > 100 µM | Hs-578T > 100 µM | IGROV-1 > 100 µM | KM12 > 100 µM | MDA-N > 100 µM | Malme-3M > 100 µM | NCI-H460 > 100 µM | OVCAR-5 > 100 µM | OVCAR-8 > 100 µM | SF-268 > 100 µM | SK-MEL-28 > 100 µM | SK-MEL-5 > 100 µM | T47D > 100 µM | UACC-257 > 100 µM | UACC-62 > 100 µM

CCOC(=O)CC(=O)Nc1cccc2sc3ncccc3c(=O)c12
inactive: BT-549 43.4 µM | CAKI-1 27.9 µM | DU-145 84.9 µM | HOP-62 33 µM | Hs-578T 19.1 µM | IGROV-1 > 10 µM | KM12 77.4 µM | MDA-N 76.7 µM | Malme-3M 54.6 µM | NCI-H460 19.5 µM | OVCAR-3 34.4 µM | OVCAR-5 20.3 µM | OVCAR-8 52.4 µM | SF-268 36.2 µM | SK-MEL-28 47.8 µM | SK-MEL-5 5.37 µM | T47D 3.95 µM | UACC-257 > 100 µM | UACC-62 31.7 µM

CCOC(OCC)C(CCc1ccccc1)c1c(N)nc(N)[nH]c1=O (configuration not stated)
inactive: A498 > 100 µM | BT-549 86.9 µM | CAKI-1 34.9 µM | DU-145 83.9 µM | HOP-62 > 100 µM | Hs-578T > 100 µM | IGROV-1 37.1 µM | KM12 66.4 µM | Malme-3M > 100 µM | NCI-H460 56.8 µM | OVCAR-3 62.4 µM | OVCAR-5 13.5 µM | OVCAR-8 > 100 µM | SF-268 52 µM | SK-MEL-28 > 100 µM | SK-MEL-5 47.6 µM | T47D 68.7 µM | UACC-257 > 100 µM | UACC-62 46.1 µM

C[C@H](CCCOS(C)(=O)=O)[C@H]1CC[C@H]2[C@@H]3CC[C@@H]4C[C@H](OS(C)(=O)=O)CC[C@]4(C)[C@H]3CC[C@]12C
inactive: A498 22.3 µM | BT-549 36.8 µM | CAKI-1 11.6 µM | DU-145 27 µM | HOP-62 22.5 µM | Hs-578T 24.4 µM | IGROV-1 30.1 µM | KM12 29.2 µM | Malme-3M 15.2 µM | NCI-H460 30.5 µM | OVCAR-3 21.4 µM | OVCAR-5 39.3 µM | OVCAR-8 14.5 µM | SF-268 27 µM | SK-MEL-28 > 100 µM | SK-MEL-5 29.8 µM | T47D 24.8 µM | UACC-257 46.7 µM | UACC-62 22.8 µM

Cc1cc(C)nc(NS(=O)(=O)c2ccc(NN=c3c4ccccc4n(C)c4ccccc34)cc2)n1
inactive: BT-549 8.95 µM | CAKI-1 21.5 µM | DU-145 37 µM | HOP-62 60.5 µM | Hs-578T 32.4 µM | IGROV-1 45.8 µM | KM12 52.7 µM | MDA-N 22.2 µM | Malme-3M 35.6 µM | NCI-H460 29.6 µM | OVCAR-3 30.2 µM | OVCAR-5 26.9 µM | OVCAR-8 30.1 µM | SF-268 25.6 µM | SK-MEL-28 37 µM | SK-MEL-5 17.2 µM | T47D 13.9 µM | UACC-257 39.3 µM | UACC-62 20.8 µM

COC(=O)CC(NC(=O)OCc1ccccc1)C(=O)NC(CC(=O)OC)C(=O)NC(CC(=O)OC)C(=O)NC(CC(=O)OC)C(=O)NC(CC(=O)OC)C(=O)NC(CC(=O)OC)C(=O)NN (configuration not stated) (Cbz-D(OMe)D(OMe)D(OMe)D(OMe)D(OMe)D(OMe)-NHNH2; configuration not given here)
inactive: BT-549 > 100 µM | HOP-62 > 100 µM | Hs-578T > 100 µM | IGROV-1 > 100 µM | KM12 > 100 µM | MDA-N > 100 µM | NCI-H460 > 100 µM | OVCAR-5 > 100 µM | OVCAR-8 > 100 µM | SF-268 > 100 µM | SK-MEL-28 > 100 µM | SK-MEL-5 > 100 µM | T47D > 100 µM | UACC-257 > 100 µM | UACC-62 > 100 µM

COC(=O)[C@@H]1Cc2ccc(OC)c(c2)OCCC(=O)N1
inactive: BT-549 > 100 µM | CAKI-1 > 100 µM | DU-145 > 100 µM | HOP-62 > 100 µM | Hs-578T > 100 µM | IGROV-1 3.14 µM | KM12 > 100 µM | MDA-N > 100 µM | Malme-3M > 100 µM | OVCAR-3 > 100 µM | OVCAR-5 > 100 µM | OVCAR-8 > 100 µM | SF-268 > 100 µM | SK-MEL-28 > 100 µM | SK-MEL-5 > 100 µM | T47D > 100 µM | UACC-257 > 100 µM | UACC-62 > 100 µM
